Results: paper PMC3181484 (The EMBO Journal, 2011)

What was measured:
[1] = target: T1, TREK-1 (Rattus norvegicus, UniProt Q920B6); type: cell-based
T1 sequence (Q920B6 1-426): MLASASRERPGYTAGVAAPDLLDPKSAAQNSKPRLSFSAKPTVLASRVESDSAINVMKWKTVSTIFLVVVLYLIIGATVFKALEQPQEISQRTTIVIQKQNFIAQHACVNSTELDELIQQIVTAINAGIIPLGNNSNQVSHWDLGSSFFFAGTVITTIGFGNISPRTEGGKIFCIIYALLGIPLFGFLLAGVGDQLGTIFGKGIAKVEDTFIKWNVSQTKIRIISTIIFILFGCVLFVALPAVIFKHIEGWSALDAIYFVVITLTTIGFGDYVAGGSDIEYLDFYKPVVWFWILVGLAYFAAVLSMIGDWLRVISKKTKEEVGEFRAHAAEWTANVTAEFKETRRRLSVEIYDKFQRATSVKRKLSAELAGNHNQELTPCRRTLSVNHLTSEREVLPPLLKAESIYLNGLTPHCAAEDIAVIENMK

[2] = target: T2, TRESK (Homo sapiens, UniProt Q7Z418); assay: QA ion block of TRESK currents, giant inside-out patches from Xenopus oocytes; type: cell-based
T2 sequence (Q7Z418 1-384): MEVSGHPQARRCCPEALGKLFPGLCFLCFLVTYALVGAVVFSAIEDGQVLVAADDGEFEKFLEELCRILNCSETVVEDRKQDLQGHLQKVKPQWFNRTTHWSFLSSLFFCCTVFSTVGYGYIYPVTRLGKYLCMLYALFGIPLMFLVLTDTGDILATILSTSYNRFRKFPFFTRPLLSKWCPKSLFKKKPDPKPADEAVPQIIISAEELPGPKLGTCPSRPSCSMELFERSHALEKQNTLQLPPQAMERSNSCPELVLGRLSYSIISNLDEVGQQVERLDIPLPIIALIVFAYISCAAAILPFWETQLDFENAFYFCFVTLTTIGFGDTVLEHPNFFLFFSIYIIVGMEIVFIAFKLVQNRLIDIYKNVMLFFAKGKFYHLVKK

SMILES | inhibition at 5000 µM ([1]; read-out: inhibition of TREK-1 current) [%] | IC50 [2] [µM] | recovery from inhibition (kinetics) ([2]; TRESK, 5 μM, −80 mV) | IC50 [1] [µM]
CCCC[N+](CCCC)(CCCC)CCCC [TButA, Tetrabutylammonium bromide] | 60 | 7 ± 1 | fairly rapid | –
CC[N+](CC)(CC)CC [TEA, Tetraethylammonium chloride] | – | 800 ± 100 | – | ~60000
